Measured values as given in ChEMBL document CHEMBL3826970, “Design, synthesis, anti-tumor activity, and molecular modeling of quinazoline and pyrido[2,3-d]pyrimidine derivatives targeting epidermal growth factor receptor” (Eur J Med Chem, 2016).

Experiments:
[1] = biological target: Epidermal growth factor receptor (Homo sapiens, UniProt P00533, L858R)
Description: Inhibition of cytoplasmic GST-tagged human recombinant EGFR L858R mutant expressed in baculovirus system by z-lyte assay

[2] = biological target: Receptor tyrosine-protein kinase erbB-2 (Homo sapiens, UniProt P04626); experiment: Inhibition of cytoplasmic His-tagged human ErbB2 expressed in baculovirus system by z-lyte assay
A549 = experiment: cells; format: functional, cell-based; conditions: Homo sapiens, A549, 72 h;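 note: antiproliferative effect read out by MTT assay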
Description: Antiproliferative activity against human A549 cells after 72 hrs by MTT assay

[3] = Antiproliferative activity against human BT474 cells after 72 hrs by MTT assay; format: functional, cell-based; conditions: BT-474, 72 h
[4] = biological target: T1, Epidermal growth factor receptor (Homo sapiens, UniProt P00533); conditions: at 1 µM
SK-BR-3 = experiment: cells; format: functional, cell-based; conditions: Homo sapiens, SK-BR-3, 72 h;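 note: antiproliferative effect determined with an MTT read-out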
Description: Antiproliferative activity against human SK-BR-3 cells after 72 hrs by MTT assay

MDA-MB-231 = experiment: cells; format: functional, cell-based; conditions: Homo sapiens, MDA-MB-231, 72 h;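 note: antiproliferative effect read out with the MTT assay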
[5] = biological target: T1, Epidermal growth factor receptor
Description: Inhibition of cytoplasmic GST-tagged human recombinant EGFR expressed in baculovirus system by z-lyte assay

[6] = biological target: Receptor tyrosine-protein kinase erbB-4 (Homo sapiens, UniProt Q15303); experiment: Inhibition of cytoplasmic GST-tagged human ErbB4 expressed in baculovirus system by z-lyte assay
[7] = biological target: Epidermal growth factor receptor (Homo sapiens, UniProt P00533, L858R/T790M); experiment: Inhibition of cytoplasmic GST-tagged human recombinant EGFR L858R/T790M double mutant (668-1210 residues) expressed in baculovirus system by z-lyte assay
MCF7 = experiment: cells; format: functional, cell-based; conditions: Homo sapiens, MCF7, 72 h;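 note: antiproliferative effect quantified with an MTT readout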

Sequence of Receptor tyrosine-protein kinase erbB-2 (P04626 whole entry): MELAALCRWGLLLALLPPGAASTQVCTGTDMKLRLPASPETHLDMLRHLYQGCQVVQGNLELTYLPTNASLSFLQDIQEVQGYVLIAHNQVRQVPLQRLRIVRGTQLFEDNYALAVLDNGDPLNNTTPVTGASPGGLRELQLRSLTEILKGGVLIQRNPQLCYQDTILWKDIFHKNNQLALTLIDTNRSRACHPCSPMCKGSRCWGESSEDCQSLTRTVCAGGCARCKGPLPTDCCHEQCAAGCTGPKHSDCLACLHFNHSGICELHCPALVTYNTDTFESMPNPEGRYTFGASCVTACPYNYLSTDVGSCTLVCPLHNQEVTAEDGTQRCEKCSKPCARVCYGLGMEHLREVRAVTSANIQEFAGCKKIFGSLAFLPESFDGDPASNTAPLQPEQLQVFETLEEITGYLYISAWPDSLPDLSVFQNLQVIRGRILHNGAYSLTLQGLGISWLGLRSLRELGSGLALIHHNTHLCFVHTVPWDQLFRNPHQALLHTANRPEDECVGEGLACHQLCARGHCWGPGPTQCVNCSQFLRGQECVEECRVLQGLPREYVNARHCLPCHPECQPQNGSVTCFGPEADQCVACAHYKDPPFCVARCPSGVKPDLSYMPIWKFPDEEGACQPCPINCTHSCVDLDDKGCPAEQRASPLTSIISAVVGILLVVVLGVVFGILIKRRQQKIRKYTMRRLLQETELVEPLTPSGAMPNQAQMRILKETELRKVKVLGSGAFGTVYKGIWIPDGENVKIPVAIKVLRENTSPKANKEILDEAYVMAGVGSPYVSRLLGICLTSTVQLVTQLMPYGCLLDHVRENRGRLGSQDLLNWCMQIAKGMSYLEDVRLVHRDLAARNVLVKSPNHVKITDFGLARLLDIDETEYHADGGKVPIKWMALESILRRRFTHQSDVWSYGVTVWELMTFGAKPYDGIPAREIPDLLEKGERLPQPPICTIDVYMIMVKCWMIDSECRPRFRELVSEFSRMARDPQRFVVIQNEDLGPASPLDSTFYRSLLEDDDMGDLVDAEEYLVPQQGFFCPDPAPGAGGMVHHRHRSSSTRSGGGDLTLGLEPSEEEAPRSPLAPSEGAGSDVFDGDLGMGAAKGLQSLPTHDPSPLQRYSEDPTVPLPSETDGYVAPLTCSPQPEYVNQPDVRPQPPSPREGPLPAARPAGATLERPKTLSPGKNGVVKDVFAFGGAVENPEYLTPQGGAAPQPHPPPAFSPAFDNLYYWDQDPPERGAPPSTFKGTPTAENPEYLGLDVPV
T1 sequence (P00533 whole entry): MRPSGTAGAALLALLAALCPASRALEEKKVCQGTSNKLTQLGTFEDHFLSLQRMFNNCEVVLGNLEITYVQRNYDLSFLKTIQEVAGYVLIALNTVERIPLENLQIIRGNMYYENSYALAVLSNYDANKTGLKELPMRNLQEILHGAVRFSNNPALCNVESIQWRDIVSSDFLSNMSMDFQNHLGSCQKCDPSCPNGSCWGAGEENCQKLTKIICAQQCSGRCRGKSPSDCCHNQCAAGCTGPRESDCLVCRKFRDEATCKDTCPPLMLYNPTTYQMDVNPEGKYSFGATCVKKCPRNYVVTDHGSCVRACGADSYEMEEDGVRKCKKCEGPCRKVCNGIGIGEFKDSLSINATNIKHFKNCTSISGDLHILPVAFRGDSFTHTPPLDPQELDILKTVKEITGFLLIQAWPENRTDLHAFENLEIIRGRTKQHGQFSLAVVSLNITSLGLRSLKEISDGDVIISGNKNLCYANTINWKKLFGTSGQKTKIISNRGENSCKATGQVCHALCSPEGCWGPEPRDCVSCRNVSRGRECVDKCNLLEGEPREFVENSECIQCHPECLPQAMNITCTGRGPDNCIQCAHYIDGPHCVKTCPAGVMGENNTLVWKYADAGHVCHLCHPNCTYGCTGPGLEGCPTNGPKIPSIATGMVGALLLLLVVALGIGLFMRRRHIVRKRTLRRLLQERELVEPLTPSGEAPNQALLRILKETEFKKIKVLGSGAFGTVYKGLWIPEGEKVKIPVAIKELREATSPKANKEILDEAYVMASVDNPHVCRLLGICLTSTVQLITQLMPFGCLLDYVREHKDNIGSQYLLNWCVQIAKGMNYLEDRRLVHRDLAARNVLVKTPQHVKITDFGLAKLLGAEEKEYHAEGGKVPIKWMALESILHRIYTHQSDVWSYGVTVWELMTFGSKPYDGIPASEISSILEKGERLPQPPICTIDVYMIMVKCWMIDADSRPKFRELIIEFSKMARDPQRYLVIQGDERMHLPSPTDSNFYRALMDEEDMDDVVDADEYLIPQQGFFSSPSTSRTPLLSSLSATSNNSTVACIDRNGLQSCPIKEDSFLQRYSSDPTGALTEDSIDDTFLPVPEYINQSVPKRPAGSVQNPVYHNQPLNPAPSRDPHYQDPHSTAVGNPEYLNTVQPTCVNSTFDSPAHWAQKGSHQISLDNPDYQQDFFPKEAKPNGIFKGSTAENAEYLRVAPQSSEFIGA
Sequence of Epidermal growth factor receptor (Homo sapiens, UniProt P00533, L858R/T790M) (P00533 25-1210 T790M/L858R limits assumed): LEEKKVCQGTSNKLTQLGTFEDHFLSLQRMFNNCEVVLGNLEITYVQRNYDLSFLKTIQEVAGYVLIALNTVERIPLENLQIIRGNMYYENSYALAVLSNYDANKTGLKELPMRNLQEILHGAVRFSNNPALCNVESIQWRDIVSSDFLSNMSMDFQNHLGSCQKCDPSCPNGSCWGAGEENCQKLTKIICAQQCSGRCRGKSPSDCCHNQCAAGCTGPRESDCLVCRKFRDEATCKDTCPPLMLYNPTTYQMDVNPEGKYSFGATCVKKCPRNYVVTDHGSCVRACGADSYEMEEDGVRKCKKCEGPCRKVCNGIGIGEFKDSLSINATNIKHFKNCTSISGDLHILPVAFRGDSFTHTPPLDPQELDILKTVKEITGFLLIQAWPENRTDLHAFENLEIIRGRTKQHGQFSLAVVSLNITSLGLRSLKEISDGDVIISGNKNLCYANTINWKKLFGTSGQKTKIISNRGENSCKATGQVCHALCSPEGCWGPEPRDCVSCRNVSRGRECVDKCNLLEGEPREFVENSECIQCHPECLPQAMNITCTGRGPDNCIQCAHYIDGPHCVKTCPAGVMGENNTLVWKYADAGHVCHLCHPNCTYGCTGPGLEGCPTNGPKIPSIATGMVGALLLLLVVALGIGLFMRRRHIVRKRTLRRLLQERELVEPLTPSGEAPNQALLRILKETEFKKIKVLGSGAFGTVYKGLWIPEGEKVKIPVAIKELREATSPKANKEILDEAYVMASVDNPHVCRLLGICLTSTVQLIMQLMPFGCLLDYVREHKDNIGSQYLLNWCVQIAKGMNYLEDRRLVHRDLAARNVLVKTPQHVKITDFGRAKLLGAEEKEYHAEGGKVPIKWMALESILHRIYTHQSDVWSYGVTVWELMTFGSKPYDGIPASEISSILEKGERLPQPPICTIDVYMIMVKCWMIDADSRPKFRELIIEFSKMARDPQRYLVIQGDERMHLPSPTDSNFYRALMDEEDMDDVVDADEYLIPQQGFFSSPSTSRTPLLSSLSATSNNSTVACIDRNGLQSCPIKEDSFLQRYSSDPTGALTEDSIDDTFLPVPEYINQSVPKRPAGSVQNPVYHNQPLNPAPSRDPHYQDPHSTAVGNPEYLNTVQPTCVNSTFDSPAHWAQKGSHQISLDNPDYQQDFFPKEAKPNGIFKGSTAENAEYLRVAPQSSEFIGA
Sequence of Epidermal growth factor receptor (Homo sapiens, UniProt P00533, L858R) (P00533 25-1210 L858R limits assumed): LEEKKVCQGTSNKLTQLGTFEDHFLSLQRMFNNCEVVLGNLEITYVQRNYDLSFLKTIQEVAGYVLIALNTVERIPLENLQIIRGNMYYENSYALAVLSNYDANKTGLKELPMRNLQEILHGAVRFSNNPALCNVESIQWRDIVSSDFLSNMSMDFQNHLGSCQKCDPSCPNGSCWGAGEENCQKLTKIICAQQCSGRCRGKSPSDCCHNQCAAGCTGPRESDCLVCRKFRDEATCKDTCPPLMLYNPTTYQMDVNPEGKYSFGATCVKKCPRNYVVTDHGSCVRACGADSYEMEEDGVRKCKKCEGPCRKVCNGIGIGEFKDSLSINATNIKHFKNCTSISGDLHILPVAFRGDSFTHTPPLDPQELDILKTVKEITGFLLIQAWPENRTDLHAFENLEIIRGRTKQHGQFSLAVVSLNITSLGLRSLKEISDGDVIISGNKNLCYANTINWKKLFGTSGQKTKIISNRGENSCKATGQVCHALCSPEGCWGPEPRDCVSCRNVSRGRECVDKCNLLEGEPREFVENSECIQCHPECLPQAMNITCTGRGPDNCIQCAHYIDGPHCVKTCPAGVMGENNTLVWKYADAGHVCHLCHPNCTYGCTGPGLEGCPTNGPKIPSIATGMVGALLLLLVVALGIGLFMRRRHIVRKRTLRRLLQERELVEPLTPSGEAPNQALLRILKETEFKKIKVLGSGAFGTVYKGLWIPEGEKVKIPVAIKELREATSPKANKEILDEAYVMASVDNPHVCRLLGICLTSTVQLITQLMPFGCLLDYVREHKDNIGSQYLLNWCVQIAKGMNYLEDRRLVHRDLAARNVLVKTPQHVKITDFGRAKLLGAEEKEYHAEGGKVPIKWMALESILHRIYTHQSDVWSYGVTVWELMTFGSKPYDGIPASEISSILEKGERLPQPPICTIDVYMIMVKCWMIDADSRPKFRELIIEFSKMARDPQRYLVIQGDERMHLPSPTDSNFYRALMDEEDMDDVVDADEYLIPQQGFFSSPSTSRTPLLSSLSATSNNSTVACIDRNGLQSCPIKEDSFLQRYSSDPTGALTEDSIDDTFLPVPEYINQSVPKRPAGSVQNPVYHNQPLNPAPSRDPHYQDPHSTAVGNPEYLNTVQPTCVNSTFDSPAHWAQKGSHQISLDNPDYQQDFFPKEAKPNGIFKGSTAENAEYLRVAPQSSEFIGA

SMILES | IC50 [1] | IC50 [2] | IC50 (A549) | IC50 [3] | inhibition [4] | IC50 (SK-BR-3) | IC50 (MDA-MB-231) | IC50 [5] | IC50 [6] | IC50 [7] | IC50 (MCF7)
Cn1cc(-c2ccc3ncnc(Nc4ccc(F)c(Cl)c4)c3c2)cn1 | 0.0035 µM | 0.676 µM | > 100 µM | 5.26 µM | 101% | 3.1 µM | 62.6 µM | 0.00297 µM | 0.801 µM | > 1 µM | 52.2 µM
CC(Nc1nc(N)nc2ccc(-c3cnn(C4CCNCC4)c3)cc12)c1c(Cl)ccc(F)c1Cl (stereo not drawn) | – | – | 8.8 µM | 5.1 µM | 17% | 1.58 µM | 4.48 µM | – | – | – | 2.23 µM
COc1cccc(CNc2ncnc3ccc(-c4cnn(C)c4)cc23)c1 | – | – | 48.9 µM | 30.4 µM | 67% | 36 µM | 28.5 µM | – | – | – | 40 µM
Cn1cc(-c2cnc3ncnc(NCc4cccc([N+](=O)[O-])c4)c3c2)cn1 | – | – | > 100 µM | > 100 µM | 30% | > 100 µM | > 100 µM | – | – | – | > 100 µM
C#Cc1cccc(Nc2ncnc3ccc(-c4cnn(C)c4)cc23)c1 | 0.00425 µM | 0.59 µM | 9.86 µM | 5.68 µM | 102% | 5.87 µM | 16.9 µM | 0.00358 µM | 0.782 µM | > 1 µM | 11.4 µM
CC(Nc1ncnc2ccc(-c3cnn(C4CCNCC4)c3)cc12)c1c(Cl)ccc(F)c1Cl (stereo not drawn) | – | – | 7 µM | 8.13 µM | 61% | 4.39 µM | 12.6 µM | – | – | – | 2.65 µM
Fc1ccc(Nc2ncnc3ccc(-c4cnn(C5CCNCC5)c4)cc23)cc1Cl | 0.0391 µM | 1.2 µM | 29.4 µM | 15.2 µM | 99% | 3.74 µM | 28.4 µM | 0.0319 µM | 1.6 µM | > 1 µM | 31.3 µM
COc1cccc(CNc2ncnc3ncc(-c4cnn(C)c4)cc23)c1 | – | – | > 100 µM | > 100 µM | 18% | > 100 µM | > 100 µM | – | – | – | > 100 µM
c1cnc2ccc(Nc3ncnc4ccc(-c5cnn(C6CCNCC6)c5)cc34)cc2c1 | 0.035 µM | 1.35 µM | 32 µM | 12.8 µM | 96% | 2.66 µM | 30.3 µM | 0.0282 µM | 1.1 µM | > 1 µM | 61.9 µM
Cn1cc(-c2ccc3ncnc(Nc4ccc5ncccc5c4)c3c2)cn1 | 0.108 µM | 0.874 µM | 1.38 µM | 10.9 µM | 101% | 0.064 µM | 26.3 µM | 0.0441 µM | 0.93 µM | > 1 µM | 0.49 µM
CC(Nc1ncnc2ncc(-c3cnn(C)c3)cc12)c1c(Cl)ccc(F)c1Cl (stereo not drawn) | – | – | > 100 µM | > 100 µM | 9% | > 100 µM | > 100 µM | – | – | – | > 100 µM
CC(Nc1ncnc2ncc(-c3cnn(C)c3)cc12)c1ccncc1 (stereo not drawn) | – | – | > 100 µM | > 100 µM | 0% | > 100 µM | > 100 µM | – | – | – | > 100 µM
CC(Oc1ncnc2ccc(-c3cnn(C4CCNCC4)c3)cc12)c1c(Cl)ccc(F)c1Cl (stereo not drawn) | – | – | 6.75 µM | 4.14 µM | 52% | 2.5 µM | 6.77 µM | – | – | – | 2.67 µM
CC(Oc1nc(N)nc2ccc(-c3cnn(C4CCNCC4)c3)cc12)c1c(Cl)ccc(F)c1Cl (stereo not drawn) | – | – | 9.49 µM | 3 µM | 7% | 7.12 µM | 7 µM | – | – | – | 1.24 µM
Cn1cc(-c2ccc3ncnc(Oc4ccc5ncccc5c4)c3c2)cn1 | – | – | 26.6 µM | 24.3 µM | 43% | 14.4 µM | 16.5 µM | – | – | – | 22 µM
CC(Oc1ncnc2ccc(-c3cnn(C)c3)cc12)c1c(Cl)ccc(F)c1Cl (stereo not drawn) | – | – | 28.8 µM | 45.6 µM | 11% | 27.2 µM | 30 µM | – | – | – | 22.6 µM
CC(Nc1nc(N)nc2ccc(-c3cnn(C)c3)cc12)c1c(Cl)ccc(F)c1Cl (stereo not drawn) | – | – | > 100 µM | 7.12 µM | 12% | 7.14 µM | 7.96 µM | – | – | – | 2.87 µM
CC(Nc1ncnc2ncc(-c3cnn(C4CCNCC4)c3)cc12)c1c(Cl)ccc(F)c1Cl (stereo not drawn) | – | – | 29.7 µM | 13.5 µM | 17% | 17.7 µM | 7.11 µM | – | – | – | 1.63 µM
